Common to all, as to experiment: DTP human tumour cell line panel, 48 h
The test system of test [1] is CAKI-1.
Test [2] relates to NCI-H522.
Test [3] relates to HCC 2998.
Test [4] relates to RPMI-8226.
For test [5], the system named is SF-295.
Test [6] deals with HCT-15.
Test [7] concerns PC-3.
For test [8], the system named is A498.
Test [9] has as its system SF-539.
Test [10] has as its system NCI-H460.
Test [11] concerns MOLT-4.
The subject of test [12] is IGROV-1.
The test system of test [13] is MDA-MB-231.
For test [14], the system named is SW-620.
Test [15] concerns SK-OV-3.
The test system of test [16] is UACC-257.
The test system of test [17] is SNB-75.
The subject of test [18] is SK-MEL-2.
The test system of test [19] is U-251.
For test [20], the system named is HCT-116.

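Following 48 hours of exposure in 96-well plates, responses at five concentrations were used to interpolate endpoints linearly. GI50 marks 50% less growth.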 Calls of active or inactive are those of the source. Rule as the data show it: active = GI50 up to about 1.1 µM and inactive = higher. A value given as a limit tells only on which side of the number the result lay.

Consider `CCOC(=O)c1cc2c(ccc3cc(C(=O)OCC)[nH]c32)[nH]1`, for which the GI50 in [1] is 29 µM (inactive); in test [2] it was 67.1 µM (inactive); in test [3], 99.8 µM (inactive); in [4], 57.1 µM (inactive); in [5], 60.7 µM (inactive); in [6] it was 33.3 µM. Further, the GI50 was > 100 µM (inactive) in [7]; 52 µM (inactive) in test [8]; 12.3 µM (inactive) in test [9]; 43.9 µM (inactive) in [10]; 35.8 µM (inactive) in test [11]; 53.7 µM (inactive) in test [12]. For the same compound, the GI50 is 12.6 µM (inactive) in [13]; 25.8 µM (inactive) in test [14]; > 100 µM (inactive) in test [15]; > 100 µM (inactive) in test [16]; 16.8 µM (inactive) in test [17]; > 100 µM (inactive) in [18]. The GI50 in [19] was 6.15 µM (inactive); in test [20], 41.9 µM (inactive).
Consider `CC(C)NC(=O)OCc1c(COC(=O)NC(C)C)n(C)c2c1ccc1sccc12`, for which the GI50 in [1] was 4.8 µM (inactive); in test [2] it was 3.65 µM (inactive); in [3], 15.2 µM (inactive); in test [4], 9.73 µM (inactive); in test [5] it was 10 µM (inactive); in test [6], 16.9 µM. Moreover, the GI50 is 11.5 µM (inactive) in test [7]; 16.3 µM (inactive) in test [8]; 12.4 µM (inactive) in test [9]; 5.33 µM (inactive) in [10]; 10.3 µM (inactive) in test [11]; 3.02 µM (inactive) in test [12]. Besides, the GI50 is 20.1 µM (inactive) in [13]; 16.2 µM (inactive) in test [14]; 24.9 µM (inactive) in [15]; 15.8 µM (inactive) in [16]; 14.4 µM (inactive) in test [17]; 16.4 µM (inactive) in test [18]. In addition, the GI50 was 20.7 µM (inactive) in test [19] and 11.1 µM (inactive) in test [20].
Regarding `O=C1c2ccccc2C(=O)N1c1ccc(Cc2ccc(N3C(=O)c4ccccc4C3=O)cc2)cc1`, the GI50 in test [1] is > 100 µM (inactive); in test [2], > 100 µM (inactive); in [3] it was > 100 µM (inactive); in test [4], > 100 µM (inactive); in [5], > 50.7 µM (inactive); in test [6], above 100 µM. Besides, the GI50 in test [7] was > 100 µM (inactive); in test [8] it was > 100 µM (inactive); in test [9], > 80.9 µM (inactive); in test [10], > 100 µM (inactive); in test [11] it was 3.02 µM (inactive); in [12], > 100 µM (inactive). In addition, the GI50 in [13] is > 100 µM (inactive); in [14] it was > 100 µM (inactive); in [15], > 100 µM (inactive); in test [16] it was > 100 µM (inactive); in [17], > 84.5 µM (inactive); in test [18], > 100 µM (inactive). In addition, the GI50 in test [19] and in test [20] was > 100 µM (inactive) throughout.
Consider `CCC1(C(=O)OC(C)(C)C)OC12C(C)CCCC2C` (stereo not drawn), for which the GI50 was 33.7 µM (inactive) in [1]; 24.5 µM (inactive) in test [2]; 18.3 µM (inactive) in test [3]; 21.5 µM (inactive) in [4]; 38.4 µM (inactive) in [5]; 36 µM in test [6]. The GI50 in [7] is 57.9 µM (inactive); in test [8] it was 57.9 µM (inactive); in [9] it was > 100 µM (inactive); in test [10], 31.9 µM (inactive); in [11], 18.7 µM (inactive); in test [12] it was > 100 µM (inactive). Moreover, the GI50 was > 100 µM (inactive) in [13]; 29.5 µM (inactive) in test [14]; 73.6 µM (inactive) in test [15]; 31 µM (inactive) in [16]; 32.9 µM (inactive) in test [17]; 44.8 µM (inactive) in test [18]. The GI50 in [19] was 42.9 µM (inactive); in [20] it was 52.8 µM (inactive).
Turning to `C/C(=C\COc1ccc2ccc(=O)oc2c1)CCC(=O)C(C)(C)O`, the GI50 in test [1] was 29.2 µM (inactive); in test [2], 19.4 µM (inactive); in test [3], 19.9 µM (inactive); in test [4], 17 µM (inactive); in test [5] it was 38.4 µM (inactive); in test [6], 17.1 µM. Further, the GI50 is 53.5 µM (inactive) in test [7]; 24 µM (inactive) in test [8]; 21 µM (inactive) in test [9]; 31.8 µM (inactive) in test [10]; 22.9 µM (inactive) in [11]; 35.1 µM (inactive) in [12]. Also, the GI50 in [13] is 44 µM (inactive); in test [14], 19.5 µM (inactive); in test [15] it was 36 µM (inactive); in test [16], 28 µM (inactive); in [17], 68.1 µM (inactive); in test [18], 39.1 µM (inactive). The values for the GI50 in test [19] and in test [20] were 19.8 µM (inactive) and 15.6 µM (inactive), respectively.
For the compound `O=[N+]([O-])/C=C/c1c(Cl)cccc1Cl`, the GI50 is 3.66 µM (inactive) in [1]; 1.61 µM (inactive) in test [2]; 3.45 µM (inactive) in test [3]; 0.838 µM (active) in test [4]; 7.87 µM (inactive) in [5]; 1.48 µM in [6]. The GI50 in [7] was 1.77 µM (inactive); in [8] it was 16.4 µM (inactive); in [9], 2.37 µM (inactive); in [10], 2.61 µM (inactive); in test [11], 1.07 µM (active); in test [12], 3.65 µM (inactive). Moreover, the GI50 in [13] was 1.91 µM (inactive); in test [14], 0.966 µM (active); in test [15], 20.8 µM (inactive); in test [16], 3.09 µM (inactive); in test [17], 18 µM (inactive); in test [18], 5.94 µM (inactive). The GI50 is 2.61 µM (inactive) in test [19] and 2.7 µM (inactive) in test [20].
Turning to `CN(C)CCCNC(=O)c1cn2c(ccc3sc4ccccc4c(=O)c32)n1`, the GI50 in test [1] was 3.28 µM (inactive); in test [2], 12.4 µM (inactive); in test [3], 11.7 µM (inactive); in [4], 1.73 µM (inactive); in [5] it was 5.36 µM (inactive); in [6] it was 2.2 µM. Besides, the GI50 was 4.8 µM (inactive) in [7]; 14.6 µM (inactive) in test [8]; 16.7 µM (inactive) in [9]; 1.13 µM (inactive) in test [10]; 0.738 µM (active) in test [11]; 10.6 µM (inactive) in test [12]. In addition, the GI50 is 1.31 µM (inactive) in [13]; 1.51 µM (inactive) in test [14]; 16.9 µM (inactive) in test [15]; 15.1 µM (inactive) in test [16]; 14.3 µM (inactive) in [17]; 21.5 µM (inactive) in test [18]. Besides, the GI50 is 1.63 µM (inactive) in test [19] and 1.53 µM (inactive) in test [20].
In the case of `C=C1c2nc3ccccc3n2C=C(c2ccc(OC)cc2)N1c1ccc(OCCN2CCCCC2)cc1`, the GI50 in [1] was 13.4 µM (inactive); in [2], > 100 µM (inactive); in test [3] it was 16 µM (inactive); in [4], 2.9 µM (inactive); in test [5], 8.85 µM (inactive); in test [6], 4.74 µM. Moreover, the GI50 in test [7] is 15.2 µM (inactive); in test [8], 35.7 µM (inactive); in test [9] it was 20.2 µM (inactive); in test [10], 2.47 µM (inactive); in [11], 2.58 µM (inactive); in [12], 12.4 µM (inactive). Besides, the GI50 is 19.8 µM (inactive) in test [13]; 6.27 µM (inactive) in test [14]; 49.1 µM (inactive) in [15]; 1.49 µM (inactive) in test [16]; 50.5 µM (inactive) in [17]; 22.1 µM (inactive) in [18]. Also, the GI50 in test [19] is 7.59 µM (inactive); in test [20], 5.83 µM (inactive).
As for `N#Cc1ccccc1NC(=O)C(=O)c1c(O)c2ccccc2oc1=O`, the GI50 in [1] is > 100 µM (inactive); in test [2], > 100 µM (inactive); in [3], > 100 µM (inactive); in test [4] it was > 100 µM (inactive); in test [5], > 100 µM (inactive); in [6], above 100 µM. The GI50 in [7], in test [8], in [9], in [10], in test [12] and in test [13] was > 100 µM (inactive) each time. The GI50 in [14], in test [15], in [16], in test [17], in [18] and in test [19] was > 100 µM (inactive) each time. Further, the GI50 in test [20] was > 100 µM (inactive).
Consider `COc1cc2c3c(c4cc(OC)c(OC)cc4c2cc1OC)C(=O)C1CCC(=O)N1C3` (stereo not drawn), for which the GI50 in test [1] was 8.75 µM (inactive); in test [2] it was 3.1 µM (inactive); in [3], 21.7 µM (inactive); in test [4], 2.02 µM (inactive); in [5], 21.6 µM (inactive); in [6], 31.6 µM. Besides, the GI50 in test [7] was 25.6 µM (inactive); in test [8], 14.9 µM (inactive); in test [9] it was 10.9 µM (inactive); in test [10] it was 13.8 µM (inactive); in test [11] it was 3.27 µM (inactive); in test [12], 2.43 µM (inactive). Besides, the GI50 in test [13] was 55.5 µM (inactive); in test [14] it was 15.5 µM (inactive); in [15] it was 14.2 µM (inactive); in [16] it was 41.9 µM (inactive); in test [17] it was 11.6 µM (inactive); in [18] it was 41.9 µM (inactive). Besides, in [19], the GI50 is 26.3 µM (inactive).

What is called GI50 is the concentration that inhibits growth by half.

These data come from ChEMBL document CHEMBL1201862, “PubChem BioAssay data set” (2004).
